Results from patent US20250170248A1, “SMARCA DEGRADERS AND USES THEREOF” (Kymera Therapeutics, Inc., priority 2021, published 2025).

Legend:
Format in all cases: cell-based
SMARCA2 [1] = molecular target: T1, SMARCA2 (Homo sapiens, UniProt P51531); test: SMARCA2 Western blot degradation in MV4-11 cells; design: SMARCA2/SMARCA4 protein degradation selectivity in MV4-11 cells; endogenous in cells; host or cells: MV4-11; details: for Dmax: MV4-11, MV4-11 cells, read-out: SMARCA2 MSD MV411 degradation 24 h: average Dmax %; for Dmax / DC50 / SMARCA2 MSD MV411 degradation 24 h: average Dmax %: 24 h; for DC50 / Selectivity in MV411 / SMARCA2 MSD MV411 degradation 24 h: average Dmax %: MV4-11 cells; for DC50: read-out: SMARCA2 MSD MV411 degradation 24 h: Mean external-Abs DC50; for Selectivity in MV411: SMARCA2/4 selectivity
T1 sequence (P51531 whole entry): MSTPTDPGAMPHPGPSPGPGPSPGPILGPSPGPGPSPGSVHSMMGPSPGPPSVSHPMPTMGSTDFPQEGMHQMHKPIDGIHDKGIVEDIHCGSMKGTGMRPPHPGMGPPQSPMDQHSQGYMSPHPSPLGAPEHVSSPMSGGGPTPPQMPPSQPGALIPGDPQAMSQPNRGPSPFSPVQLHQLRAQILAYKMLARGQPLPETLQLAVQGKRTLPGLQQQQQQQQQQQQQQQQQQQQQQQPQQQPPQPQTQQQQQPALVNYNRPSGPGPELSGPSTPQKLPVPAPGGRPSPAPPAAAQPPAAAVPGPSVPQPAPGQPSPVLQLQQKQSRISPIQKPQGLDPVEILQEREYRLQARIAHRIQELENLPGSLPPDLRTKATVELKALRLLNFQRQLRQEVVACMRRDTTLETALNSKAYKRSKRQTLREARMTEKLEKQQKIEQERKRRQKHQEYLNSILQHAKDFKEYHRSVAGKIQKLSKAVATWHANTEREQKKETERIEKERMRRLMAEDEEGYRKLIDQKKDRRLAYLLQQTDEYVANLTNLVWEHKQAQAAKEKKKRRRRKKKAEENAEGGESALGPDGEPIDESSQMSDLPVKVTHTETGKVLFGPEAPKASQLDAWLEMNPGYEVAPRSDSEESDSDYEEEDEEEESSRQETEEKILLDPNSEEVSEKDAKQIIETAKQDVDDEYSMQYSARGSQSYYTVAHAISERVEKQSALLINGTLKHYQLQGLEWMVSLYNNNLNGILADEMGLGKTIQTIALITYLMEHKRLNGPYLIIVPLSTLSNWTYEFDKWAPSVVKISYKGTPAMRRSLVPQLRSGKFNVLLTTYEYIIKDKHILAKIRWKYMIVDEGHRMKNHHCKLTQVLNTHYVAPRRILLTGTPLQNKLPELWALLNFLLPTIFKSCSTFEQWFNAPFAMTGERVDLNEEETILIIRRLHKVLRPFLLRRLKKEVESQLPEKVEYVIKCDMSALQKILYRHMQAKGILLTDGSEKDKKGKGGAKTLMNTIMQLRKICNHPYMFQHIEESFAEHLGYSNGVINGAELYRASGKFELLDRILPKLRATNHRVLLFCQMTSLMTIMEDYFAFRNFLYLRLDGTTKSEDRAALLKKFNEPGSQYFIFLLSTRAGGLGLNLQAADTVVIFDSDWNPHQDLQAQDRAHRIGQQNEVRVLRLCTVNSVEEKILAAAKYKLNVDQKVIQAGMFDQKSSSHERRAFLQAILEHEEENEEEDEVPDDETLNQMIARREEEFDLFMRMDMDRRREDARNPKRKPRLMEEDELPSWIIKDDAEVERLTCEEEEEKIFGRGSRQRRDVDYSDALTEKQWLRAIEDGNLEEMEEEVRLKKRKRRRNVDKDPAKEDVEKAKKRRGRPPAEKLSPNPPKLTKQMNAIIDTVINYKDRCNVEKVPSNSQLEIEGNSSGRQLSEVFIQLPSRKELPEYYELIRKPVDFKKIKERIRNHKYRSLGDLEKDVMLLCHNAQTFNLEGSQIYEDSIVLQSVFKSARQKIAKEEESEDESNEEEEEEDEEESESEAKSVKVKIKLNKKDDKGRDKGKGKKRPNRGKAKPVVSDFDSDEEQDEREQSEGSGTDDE

SMARCA2 [2] = molecular target: T1, SMARCA2; test: MSD SMARCA2 degradation in A549 cell line; details: for Dmax: A549, A549 cells; for Dmax / DC50: 24 h; for DC50 / SMARCA2 MSD A549 degradation 24 h: Average Dmax %: A549 cells; for DC50: read-out: SMARCA2 MSD A549 degradation 24 h: Average external-Abs DC50
Summary of the method: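 SMARCA2 protein remaining after 24 h exposure of A549 cells (top concentration 1000 nM, 3-fold dilutions) was measured by MSD electrochemiluminescence immunoassay of cell lysates. Results are given as binned DC50 and maximal degradation (Dmax) codes.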

SMARCA4 = molecular target: T2, SMARCA4 (Homo sapiens, UniProt P51532); test: SMARCA4 Western blot degradation in MV4-11 cells; details: for Dmax: MV4-11, MV4-11 cells, read-out: SMARCA4 MSD MV411 degradation 24 h: average Dmax %; for Dmax / DC50: 24 h; for DC50 / SMARCA4 MSD MV411 degradation 24 h: average Dmax %: MV4-11 cells; for DC50: read-out: SMARCA4 MSD MV411 degradation 24 h: Mean external-Abs DC50
T2 construct: SMARCA2/SMARCA4 protein degradation selectivity in MV4-11 cells; endogenous in cells; host or cells: MV4-11
T2 sequence (P51532 whole entry): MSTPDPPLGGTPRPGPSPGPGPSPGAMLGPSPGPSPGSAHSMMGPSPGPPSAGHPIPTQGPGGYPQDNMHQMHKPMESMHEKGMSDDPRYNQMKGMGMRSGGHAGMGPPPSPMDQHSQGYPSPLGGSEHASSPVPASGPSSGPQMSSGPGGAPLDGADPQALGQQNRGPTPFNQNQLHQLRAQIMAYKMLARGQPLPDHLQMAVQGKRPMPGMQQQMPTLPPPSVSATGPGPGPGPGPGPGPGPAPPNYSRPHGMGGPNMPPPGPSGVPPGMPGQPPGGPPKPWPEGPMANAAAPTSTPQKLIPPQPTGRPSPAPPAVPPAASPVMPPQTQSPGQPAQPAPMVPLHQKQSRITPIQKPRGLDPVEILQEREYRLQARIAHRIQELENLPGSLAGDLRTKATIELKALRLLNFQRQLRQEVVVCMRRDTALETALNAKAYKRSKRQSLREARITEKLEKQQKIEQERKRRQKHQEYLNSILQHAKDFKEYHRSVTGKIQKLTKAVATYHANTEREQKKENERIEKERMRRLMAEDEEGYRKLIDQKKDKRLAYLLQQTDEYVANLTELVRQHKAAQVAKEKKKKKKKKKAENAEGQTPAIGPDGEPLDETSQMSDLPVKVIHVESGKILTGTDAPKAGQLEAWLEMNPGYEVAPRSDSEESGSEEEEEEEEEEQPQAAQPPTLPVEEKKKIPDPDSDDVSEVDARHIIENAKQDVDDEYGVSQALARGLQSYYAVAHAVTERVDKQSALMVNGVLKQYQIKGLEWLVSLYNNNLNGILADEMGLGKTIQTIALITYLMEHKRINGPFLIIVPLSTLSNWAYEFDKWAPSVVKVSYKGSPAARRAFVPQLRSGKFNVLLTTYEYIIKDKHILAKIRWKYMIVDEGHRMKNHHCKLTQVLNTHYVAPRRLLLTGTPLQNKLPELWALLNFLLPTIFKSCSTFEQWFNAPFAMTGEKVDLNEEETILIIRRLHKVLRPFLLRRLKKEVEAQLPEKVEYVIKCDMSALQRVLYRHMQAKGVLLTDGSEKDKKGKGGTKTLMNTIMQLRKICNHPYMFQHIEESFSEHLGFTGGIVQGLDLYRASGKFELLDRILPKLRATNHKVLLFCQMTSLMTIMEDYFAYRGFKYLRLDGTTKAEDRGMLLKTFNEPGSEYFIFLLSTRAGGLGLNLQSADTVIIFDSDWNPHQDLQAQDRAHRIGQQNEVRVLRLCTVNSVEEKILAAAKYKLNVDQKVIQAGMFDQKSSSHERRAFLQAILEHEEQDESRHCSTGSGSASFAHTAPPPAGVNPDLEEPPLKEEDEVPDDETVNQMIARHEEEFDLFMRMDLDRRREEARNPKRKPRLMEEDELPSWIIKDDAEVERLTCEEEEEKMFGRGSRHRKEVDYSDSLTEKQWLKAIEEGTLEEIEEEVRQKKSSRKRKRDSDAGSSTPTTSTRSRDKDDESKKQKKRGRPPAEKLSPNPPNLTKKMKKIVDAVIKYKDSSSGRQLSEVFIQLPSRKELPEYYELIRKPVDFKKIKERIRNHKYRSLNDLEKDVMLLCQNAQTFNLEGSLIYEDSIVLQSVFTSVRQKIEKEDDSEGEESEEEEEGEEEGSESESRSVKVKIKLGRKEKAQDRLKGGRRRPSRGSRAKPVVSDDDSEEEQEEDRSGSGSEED
Summary of the method: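 Protein levels quantified by LI-COR Western blot (beta-actin loading control) in RIPA lysates of MV4-11 cells after 24 h compound exposure. Degradation reported as DC50, Dmax % at 24 h and SMARCA2 vs SMARCA4 selectivity, each binned into letter codes.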

C#Cc1ccc(CNC(=O)[C@@H]2C[C@@H](O)CN2C(=O)[C@@H](NC(=O)N2CC3(CC(N4CCC(N5CC6(CC(N7CCc8[nH]c9nnc(-c%10ccccc%10O)cc9c8[C@H]7C)C6)C5)CC4)C3)C2)C(C)(C)C)cc1 [I-207]
Dmax (SMARCA2 [1]): 70 to 90%
DC50 (SMARCA2 [1]): 1 to 10 nM
Selectivity in MV411 (SMARCA2 [1]): B (B (>100-500 fold))
Dmax (SMARCA2 [2]): > 90%
DC50 (SMARCA2 [2]): > 100 nM
Dmax (SMARCA4): < 50%
DC50 (SMARCA4): > 100 nM

C#Cc1ccc(CNC(=O)[C@@H]2C[C@@H](O)CN2C(=O)[C@@H](NC(=O)N2CCC(N3CC4(CC(N5CCC(N6CCc7[nH]c8nnc(-c9ccccc9O)cc8c7[C@H]6C)CC5)C4)C3)CC2)C(C)(C)C)cc1 [I-206]
Dmax (SMARCA2 [1]): < 50%
DC50 (SMARCA2 [1]): > 100 nM
Selectivity in MV411 (SMARCA2 [1]): C (C (10-100 fold))
Dmax (SMARCA2 [2]): 70 to 90%
DC50 (SMARCA2 [2]): > 100 nM
Dmax (SMARCA4): < 50%
DC50 (SMARCA4): > 100 nM

C#Cc1ccc(C2(NC(=O)[C@@H]3C[C@@H](O)CN3C(=O)[C@@H](NC(=O)[C@H]3CC4(C3)C[C@H](N3CCC(N5CCC(N6CCN7c8cc(-c9ccccc9O)nnc8NC[C@H]7C6)CC5)CC3)C4)C(C)(C)C)CC2)cc1 (single isomer, unassigned) [I-225]
SMARCA2 MSD MV411 degradation 24 h: average Dmax % (SMARCA2 [1]): B (B (>70-90% degradation))
DC50 (SMARCA2 [1]): 1 to 10 nM
Selectivity in MV411 (SMARCA2 [1]): B (B (>100-500 fold))
SMARCA2 MSD A549 degradation 24 h: Average Dmax % (SMARCA2 [2]): A (A (>90% degradation))
DC50 (SMARCA2 [2]): > 100 nM
SMARCA4 MSD MV411 degradation 24 h: average Dmax % (SMARCA4): D (D (<50% degradation))
DC50 (SMARCA4): > 100 nM

C#Cc1ccc([C@H](C)NC(=O)[C@@H]2C[C@@H](O)CN2C(=O)[C@@H](NC(=O)[C@H]2CC3(C2)C[C@H](c2cnc(N4CCC(N5CCN6c7cc(-c8ccccc8O)nnc7NC[C@H]6C5)CC4)nc2)C3)C(C)(C)C)cc1 (stereo partly shown) [I-362]
Dmax (SMARCA2 [1]): 70 to 90%
DC50 (SMARCA2 [1]): 1 to 10 nM
Selectivity in MV411 (SMARCA2 [1]): C (C (10-100 fold))
Dmax (SMARCA2 [2]): > 90%
DC50 (SMARCA2 [2]): 10 to 50 nM
Dmax (SMARCA4): 70 to 90%
DC50 (SMARCA4): > 100 nM

C#Cc1cc(O)c(CNC(=O)[C@@H]2C[C@@H](O)CN2C(=O)[C@@H](NC(=O)N2CC3(CC(N4CCC(c5cnc(N6CCc7[nH]c8nnc(-c9ccccc9O)cc8c7[C@H]6C)nc5)CC4)C3)C2)C(C)(C)C)c(Cl)c1 [I-281]
Dmax (SMARCA2 [1]): < 50%
DC50 (SMARCA2 [1]): > 100 nM
Selectivity in MV411 (SMARCA2 [1]): D (D (<10 fold))
Dmax (SMARCA2 [2]): < 50%
DC50 (SMARCA2 [2]): > 100 nM
Dmax (SMARCA4): < 50%
DC50 (SMARCA4): > 100 nM

C#Cc1ccc(CNC(=O)[C@@H]2C[C@@H](O)CN2C(=O)[C@@H](NC(=O)N2CCC(N3CCC(N4CC5(CC(N6CCc7[nH]c8nnc(-c9ccccc9O)cc8c7[C@H]6C)C5)C4)CC3)CC2)C(C)(C)C)cc1 [I-208]
Dmax (SMARCA2 [1]): < 50%
DC50 (SMARCA2 [1]): > 100 nM
Selectivity in MV411 (SMARCA2 [1]): C (C (10-100 fold))
Dmax (SMARCA2 [2]): 70 to 90%
DC50 (SMARCA2 [2]): > 100 nM
Dmax (SMARCA4): < 50%
DC50 (SMARCA4): > 100 nM

Cc1ncsc1-c1ccc(CNC(=O)[C@@H]2C[C@@H](O)CN2C(=O)[C@@H](NC(=O)[C@H]2CC3(C2)C[C@H](N2CCC(c4ccnc(N5CCN6c7cc(-c8ccccc8O)nnc7NC[C@H]6C5)n4)CC2)C3)C(C)(C)C)cc1 (single isomer, unassigned) [I-27]
SMARCA2 MSD MV411 degradation 24 h: average Dmax % (SMARCA2 [1]): A (A (>90% degradation))
DC50 (SMARCA2 [1]): 1 to 10 nM
Selectivity in MV411 (SMARCA2 [1]): A (A (>500 fold))
SMARCA2 MSD A549 degradation 24 h: Average Dmax % (SMARCA2 [2]): B (B (>70-90% degradation))
DC50 (SMARCA2 [2]): 10 to 50 nM
SMARCA4 MSD MV411 degradation 24 h: average Dmax % (SMARCA4): D (D (<50% degradation))
DC50 (SMARCA4): > 100 nM

C#Cc1ccc2c(c1)OCC[C@H]2NC(=O)[C@@H]1C[C@@H](O)CN1C(=O)[C@@H](NC(=O)N1CC2(CC(N3CCC(c4cnc(N5CCc6[nH]c7nnc(-c8ccccc8O)cc7c6[C@H]5C)nc4)CC3)C2)C1)C(C)(C)C (single isomer, unassigned) [I-236]
Dmax (SMARCA2 [1]): 50 to 70%
DC50 (SMARCA2 [1]): > 100 nM
Selectivity in MV411 (SMARCA2 [1]): D (D (<10 fold))
Dmax (SMARCA2 [2]): 70 to 90%
DC50 (SMARCA2 [2]): > 100 nM
Dmax (SMARCA4): < 50%
DC50 (SMARCA4): > 100 nM

C#Cc1ccc(CNC(=O)[C@@H]2C[C@@H](O)CN2C(=O)[C@@H](NC(=O)N2CCN(CC3CCN([C@H]4CC[C@H](N5CCN6c7cc(-c8ccccc8O)nnc7NC[C@H]6C5)CC4)CC3)CC2)C(C)(C)C)cc1 [I-217]
Dmax (SMARCA2 [1]): 50 to 70%
DC50 (SMARCA2 [1]): 10 to 100 nM
Selectivity in MV411 (SMARCA2 [1]): C (C (10-100 fold))
Dmax (SMARCA2 [2]): 70 to 90%
DC50 (SMARCA2 [2]): > 100 nM
Dmax (SMARCA4): < 50%
DC50 (SMARCA4): > 100 nM

C#Cc1ccc(CNC(=O)[C@@H]2C[C@@H](O)CN2C(=O)[C@@H](NC(=O)N2CC3(CC(N4CCC(c5cnc(N6CCc7[nH]c8nnc(-c9ccccc9O)cc8c7[C@H]6C)nc5)CC4)C3)C2)C(C)(C)CCO)cc1 [I-288]
Dmax (SMARCA2 [1]): > 90%
DC50 (SMARCA2 [1]): 1 to 10 nM
Selectivity in MV411 (SMARCA2 [1]): C (C (10-100 fold))
Dmax (SMARCA2 [2]): > 90%
DC50 (SMARCA2 [2]): < 10 nM
Dmax (SMARCA4): 70 to 90%
DC50 (SMARCA4): 10 to 100 nM

C#Cc1ccc(CNC(=O)[C@@H]2C[C@@H](O)CN2C(=O)[C@@H](NC(=O)[C@H]2CC3(C2)C[C@H](c2cnc(N4CCC(N5CCN6c7cc(-c8ccccc8O)nnc7NC[C@H]6C5)CC4)nc2)C3)C(C)(C)C)cc1 (stereo partly shown) [I-302]
DC50 (SMARCA2 [1]): 1 to 10 nM
Selectivity in MV411 (SMARCA2 [1]): C (C (10-100 fold))
DC50 (SMARCA2 [2]): 10 to 50 nM
DC50 (SMARCA4): 10 to 100 nM

C#Cc1ccc(CNC(=O)[C@@H]2C[C@@H](O)CN2C(=O)[C@@H](NC(=O)N2CC3(CC(N4CCC(c5cnc(N6CCc7[nH]c8nnc(-c9ccccc9O)cc8c7[C@H]6C)nc5)CC4)C3)C2)C(C)(C)C)c(OC)c1 [I-119]
Dmax (SMARCA2 [1]): > 90%
DC50 (SMARCA2 [1]): 1 to 10 nM
Selectivity in MV411 (SMARCA2 [1]): C (C (10-100 fold))
Dmax (SMARCA2 [2]): > 90%
DC50 (SMARCA2 [2]): < 10 nM
Dmax (SMARCA4): > 90%
DC50 (SMARCA4): 10 to 100 nM

CC#Cc1ccc(CNC(=O)[C@@H]2C[C@@H](O)CN2C(=O)[C@@H](NC(=O)[C@H]2CCC3(CC2)C[C@H](N2CCC(c4cnc(N5CCN6c7cc(-c8ccccc8O)nnc7NC[C@H]6C5)nc4)CC2)C3)C(C)(C)C)cc1 (single isomer, unassigned) [I-117]
SMARCA2 MSD MV411 degradation 24 h: average Dmax % (SMARCA2 [1]): C (C (50-70% degradation))
DC50 (SMARCA2 [1]): 10 to 100 nM
Selectivity in MV411 (SMARCA2 [1]): C (C (10-100 fold))
SMARCA2 MSD A549 degradation 24 h: Average Dmax % (SMARCA2 [2]): A (A (>90% degradation))
DC50 (SMARCA2 [2]): > 100 nM
SMARCA4 MSD MV411 degradation 24 h: average Dmax % (SMARCA4): D (D (<50% degradation))
DC50 (SMARCA4): > 100 nM

C#Cc1ccc(CNC(=O)[C@@H]2C[C@@H](O)CN2C(=O)[C@@H](NC(=O)[C@H]2CC[C@@H](CN3CCC(c4cnc(N5CCN6c7cc(-c8ccccc8O)nnc7NC[C@H]6C5)nc4)CC3)CC2)C(C)(C)C)cc1 [I-293]
Dmax (SMARCA2 [1]): 70 to 90%
DC50 (SMARCA2 [1]): 1 to 10 nM
Selectivity in MV411 (SMARCA2 [1]): B (B (>100-500 fold))
Dmax (SMARCA2 [2]): > 90%
DC50 (SMARCA2 [2]): 10 to 50 nM
Dmax (SMARCA4): 50 to 70%
DC50 (SMARCA4): > 100 nM

C#Cc1ccc(CNC(=O)[C@@H]2C[C@@H](O)CN2C(=O)[C@@H](NC(=O)N2CC3(CC(N4CCC(c5cnc(N6CCc7[nH]c8nnc(-c9ccccc9O)cc8c7[C@H]6C)nc5)CC4)C3)C2)C(C)(C)C)cc1Cl [I-309]
Dmax (SMARCA2 [1]): > 90%
DC50 (SMARCA2 [1]): 10 to 100 nM
Selectivity in MV411 (SMARCA2 [1]): C (C (10-100 fold))
Dmax (SMARCA2 [2]): > 90%
DC50 (SMARCA2 [2]): 10 to 50 nM
Dmax (SMARCA4): 70 to 90%
DC50 (SMARCA4): > 100 nM

Cc1ncsc1-c1ccc(CNC(=O)[C@@H]2C[C@@H](O)CN2C(=O)C(c2cc(OCCCN3CCC(c4cnc(N5CCN6c7cc(-c8ccccc8O)nnc7NC[C@H]6C5)nc4)CC3)no2)C(C)C)cc1 (single isomer, unassigned) [I-53]
Dmax (SMARCA2 [1]): > 90%
DC50 (SMARCA2 [1]): < 1 nM
Selectivity in MV411 (SMARCA2 [1]): D (D (<10 fold))
Dmax (SMARCA2 [2]): > 90%
DC50 (SMARCA2 [2]): 10 to 50 nM
Dmax (SMARCA4): > 90%
DC50 (SMARCA4): 1 to 10 nM
